From the supplement of paper PMC8671470

Legend:
Conditions in all cases: 72 h
[1] = tested on: BV-173
Method in brief: (§1)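 Fifteen myeloid leukaemia cell lines were seeded in RPMI 1640 at densities titrated to the linear growth range and placed in 384-well plates with acoustically pre-printed compounds at five tenfold doses from 1 to 10,000 nM, in duplicate. After 72 h at 37 °C with 5% CO2, luminescent ATP viability was normalised to vehicle and to a positive control at 10 µM, and curves were fitted with a four-parameter log-logistic model. The IC50 was obtained from these fits.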

[2] = tested on: HEL
Method in brief: as §1

[3] = tested on: HL-60
Method in brief: as §1

[4] = tested on: K-562
Method in brief: as §1

[5] = tested on: KCL-22
Method in brief: as §1

[6] = tested on: KG-1
Method in brief: as §1

[7] = tested on: KU-812
Method in brief: as §1

[8] = tested on: LAMA-84
Method in brief: as §1

[9] = tested on: ML-2
Method in brief: as §1

[10] = tested on: MOLM-13
Method in brief: as §1

[11] = tested on: MV4-11
Method in brief: as §1

[12] = tested on: Mono-Mac-6
Method in brief: as §1

[13] = tested on: NOMO-1
Method in brief: as §1

[14] = tested on: SHI-1
Method in brief: as §1

[15] = tested on: THP-1
Method in brief: as §1

[16] = tested on: BV-173; assay: cell viability (% survival relative to DMSO control, bortezomib = 0%); higher = less cytotoxic
Method in brief: (§2)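 Fifteen myeloid leukaemia cell lines (10 AML, 5 CML) were seeded at a density titrated to the linear growth range into 384-well plates pre-printed with compounds at 1, 10, 100, 1000 or 10000 nM in duplicate. Plates were incubated for 72 h at 37 °C with 5% CO2. Viability was then read by CellTiter-Glo luminescence. Each value is percent survival averaged over the duplicates, with vehicle set to 100% and a 10 µM positive control to 0%.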

[17] = tested on: HEL; assay: as above
Method in brief: as §2

[18] = tested on: HL-60; assay: as above
Method in brief: as §2

[19] = tested on: K-562; assay: as above
Method in brief: as §2

[20] = tested on: KCL-22; assay: as above
Method in brief: as §2

[21] = tested on: KG-1; assay: as above
Method in brief: as §2

[22] = tested on: KU-812; assay: as above
Method in brief: as §2

[23] = tested on: LAMA-84; assay: as above
Method in brief: as §2

[24] = tested on: ML-2; assay: as above
Method in brief: as §2

[25] = tested on: MOLM-13; assay: as above
Method in brief: as §2

[26] = tested on: MV4-11; assay: as above
Method in brief: as §2

[27] = tested on: Mono-Mac-6; assay: as above
Method in brief: as §2

[28] = tested on: NOMO-1; assay: as above
Method in brief: as §2

[29] = tested on: SHI-1; assay: as above
Method in brief: as §2

[30] = tested on: THP-1; assay: as above
Method in brief: as §2

CCCCCCCNC=O [N-Heptyl-Formamide]
Conditions	IC50 (cell viability) [µM]
[1]	> 10
[2]	> 10
[3]	> 10
[4]	> 10
[5]	> 10
[6]	> 10
[7]	> 10
[8]	> 10
[9]	> 10
[10]	> 10
[11]	> 10
[12]	> 10
[13]	> 10
[14]	> 10
[15]	> 10

cell viability [%]
Conditions	1 nM	10 nM	100 nM	1000 nM	10000 nM
[16]	112	98.3	90.4	123	95.5
[17]	109	97.9	80.9	112	92.1
[18]	108	115	95.3	143	91.7
[19]	116	108	99	122	96.3
[20]	101	109	90.1	113	98.8
[21]	99.6	110	86.4	108	95.5
[22]	108	97.3	98.9	107	91.7
[23]	101	99.3	104	112	98.1
[24]	121	106	88.8	117	90.9
[25]	113	98.3	89.9	108	90.3
[26]	106	105	93.7	105	94.4
[27]	110	97.3	101	114	96.8
[28]	110	96.7	100	113	93
[29]	109	104	101	114	97.1
[30]	110	97.1	97.1	104	96.7

CC(C)(F)C[C@H](N[C@@H](c1ccc(-c2ccc(S(C)(=O)=O)cc2)cc1)C(F)(F)F)C(=O)NC1(C#N)CC1 [Odanacatib]
Conditions	IC50 (cell viability) [µM]
[1]	> 10
[2]	> 10
[3]	> 10
[4]	> 10
[5]	> 10
[6]	> 10
[7]	> 10
[8]	> 10
[9]	> 10
[10]	> 10
[11]	> 10
[12]	> 10
[13]	> 10
[14]	> 10
[15]	> 10

cell viability [%]
Conditions	1 nM	10 nM	100 nM	1000 nM	10000 nM
[16]	85.1	104	101	88.7	106
[17]	104	107	99.9	92.7	107
[18]	143	105	114	118	83.3
[19]	101	106	104	91.8	103
[20]	128	96.9	104	93.7	122
[21]	103	99.6	95.6	107	103
[22]	94.8	87.9	99.7	91.8	99.2
[23]	104	103	106	89	102
[24]	107	101	96.5	100	101
[25]	128	99.5	108	96.4	117
[26]	109	105	111	97.9	112
[27]	96.4	101	101	99.2	85.5
[28]	99.6	100	108	102	100
[29]	109	107	99.9	98.5	117
[30]	99.2	99.6	100	94.9	95.7
